Laboratory results published in US20100099730A1, “ANNELLATED PYRROLE COMPOUNDS FOR CANCER MANAGEMENT” (MERCKLE GMBH, priority 2006, published 2010).

Assays:
HCA-7 cells [1] = assay: Cell morphology: phase-contrast and Hoechst 33342 fluorescence microscopy; format: cell-based, human; settings: licofelone 150 μM
Experimental: Morphological changes in the nuclear chromatin of cells undergoing apoptosis were detected by staining with the DNA-binding fluorochrome bis-benzimide stain. Briefly, HCA-7 were seeded in a flat-bottomed 96-well plate at the density of 2×10^4 cells/well and grown for 24 hours in complete medium. Cells where then cultured in the presence or absence of licofelone 150 μM at the indicated times; at the end of incubation, Hoechst 33342 (1 μg/ml) was added to each well for at least 20 min. at 37° C. HCA-7 cells were then washed with phosphate-buffered saline (PBS), fixed in 4% formaldehyde and observed under a fluorescence microscope.

[2] = test system: PGE2 production by HCA-7 cells; assay: PGE2 level in HCA-7 culture medium, enzyme immunoassay; format: cell-based, human; settings: all doses tested (100-150 μM), 24 hours
Experimental: (§1) For treatment with licofelone ([…] GmbH, Ulm, Germany), exponentially growing cells were trypsinized, seeded in regular medium (2×10^4 cells/well in 96-well plates; 1.2×10^5 cells/well in 24-well plates; 6×10^5 cells/well in 6-well plates; 1.5×10^6 cells in 25 cm^2 flasks) and incubated for 24 h. The medium was then replaced either with control medium or with medium containing 100, 125 or 150 μM licofelone. This drug was dissolved in dimethyl sulfoxide (DMSO) and diluted into the medium to obtain the required final concentration before each experiment. Fresh medium, alone or supplemented with licofelone, was completely replaced every 48 hours. To control for an effect of DMSO, control samples were treated in parallel with an equivalent concentration of this solvent. For determination of PGE2 and LTB4 production, HCA-7 were seeded in a 24-well plates at the density of 1.2×10^5 cells/well and grown in complete medium for 24 hours. Cells were then serum-starved overnight before being exposed to increasing doses of licofelone (100-150 μM) in serum-free medium for additional 24 hours. The harvested medium was centrifuged at 500×g for 5 min (4° C.) to remove floating cells and the supernatant was collected and assayed following customer instructions. The levels of PGE2 and LTB4 were measured by enzyme immunoassay. Results are expressed as picograms/ml of medium. […]

HCA-7 cells [3] = assay: MTT reduction assay, HCA-7 survival/proliferation; format: cell-based, human
Experimental: LS174T and CACO-2 were a generous gift of Prof. F. Dall'Olio (Dept. of Experimental Pathology, University of Bologna, Italy); HCA-7 cells were purchased from European Collection of Cell Cultures. These lines were cultured in Dulbecco's modified Eagle's Medium with 4.5 g/L glucose (DMEM), supplemented with 10% (v/v) heat-inactivated FBS, 2 mM L-glutamine, 100 U/ml penicillin and 100 μg/ml streptomycin. Cells were grown in monolayers, incubated at 37° C. in a humidified atmosphere of 95% air and 5% CO2 and routinely passaged using trypsin-EDTA 0.025%. For treatment with licofelone ([…] GmbH, Ulm, Germany), exponentially growing cells were trypsinized, seeded in regular medium (2×10^4 cells/well in 96-well plates; 1.2×10^5 cells/well in 24-well plates; 6×10^5 cells/well in 6-well plates; 1.5×10^6 cells in 25 cm^2 flasks) and incubated for 24 h. The medium was then replaced either with control medium or with medium containing 100, 125 or 150 μM licofelone. This drug was dissolved in dimethyl sulfoxide (DMSO) and diluted into the medium to obtain the required final concentration before each experiment. Fresh medium, alone or supplemented with licofelone, was completely replaced every 48 hours. To control for an effect of DMSO, control samples were treated in parallel with an equivalent concentration of this solvent. The effect of licofelone on HCA-7 survival/proliferation was determined colourimetrically using the MTT assay. MTT is a yellow-coloured tetrazolium salt that is taken up and cleaved only by metabolically active cells, which reduce it to a coloured, water-insoluble formazan salt. The solubilized formazan product can be quantified via absorbance at 570 nm measured using a 96-well-format spectrophotometer and the absorbance correlates directly with cell number. 2×10^4 cells/well were plated in a 100 μl volume in 96-well plates and grown for 24 h in DMEM supplemented with 10% FBS. Complete medium containing the indicated amount of licofelone, alone or in association with exogenous PGE2 and/or LTB4), was then replaced to each well. At the indicated times, 10 μl of MTT (5 mg/ml) was added and cells were incubated at 37° C. for 4 hours. The tetrazolium crystals were solubilized by the addition of 10% SDS in 0.01 N HCl. After overnight incubation at 37° C., the absorbance was measured at 570 nm using a 96-well spectrophotometric microplate reader. Survival/proliferation rate was calculated as follows (A570 treatment/A570 control×100). All determinations were carried out in triplicate.

[4] = test system: LTB4 production by HCA-7 cells; assay: LTB4 level in HCA-7 culture medium, enzyme immunoassay; format: cell-based, human; settings: 150 μM, 24 hours, serum-free medium
Experimental: as §1

HCA-7 cells [5] = assay: Cell-cycle distribution by flow cytometry (propidium iodide), sub-G1 cells; format: cell-based, human; settings: 0-150 μM, after 48 hours of treatment
Experimental: For treatment with licofelone ([…] GmbH, Ulm, Germany), exponentially growing cells were trypsinized, seeded in regular medium (2×10^4 cells/well in 96-well plates; 1.2×10^5 cells/well in 24-well plates; 6×10^5 cells/well in 6-well plates; 1.5×10^6 cells in 25 cm^2 flasks) and incubated for 24 h. The medium was then replaced either with control medium or with medium containing 100, 125 or 150 μM licofelone. This drug was dissolved in dimethyl sulfoxide (DMSO) and diluted into the medium to obtain the required final concentration before each experiment. Fresh medium, alone or supplemented with licofelone, was completely replaced every 48 hours. To control for an effect of DMSO, control samples were treated in parallel with an equivalent concentration of this solvent. The cell-cycle distribution for control and drug-treated cells was determined after 24 and 48 hours of treatment. Cells were seeded at the density of 6×10^5 cells/well onto 6-well plates and allowed to adhere for 24 h. Cells were then incubated with licofelone for 24 and 48 hours and then harvested by trypsinization. […] Subsequently, DNA content was measured using a flow cytometer and the cell-cycle distribution was calculated using the Phoenix Multicycle for Windows cell-cycle analysis software. A minimum of 10'000 events were measured for each sample.

caspase-3 = assay: Western blot of caspase-3 cleavage in HCA-7 cells; format: cell-based, human; settings: licofelone 150 μM, 0-24 hours, maximum after 24 hours
Experimental: (§2) For Western blot analysis, cells were seeded in a 25 cm^2 flask at the density of 1.5×10^6 and grown in complete medium for 24 hours. At the end of incubation cells were scraped from flasks and lysed in a buffer containing 10 mM Tris, 1% SDS, 1 mM Na orthovanadate and a protease inhibitors cocktail. Samples containing 50 μg of protein were subjected to gel electrophoresis in 10% polyacrylamide gels in the presence of SDS. The proteins were then transferred electrophoretically to a Hybond-C nitrocellulose membrane at 300 V for 1 h at 4° C. The membrane was subsequently immersed in 0.5% Ponceau S in 1% acetic acid to stain the proteins and to confirm that equal amounts of protein were loaded in each lane and transferred efficiently. After incubation overnight in a blocking solution containing 5% bovine skim milk powder in 10 mM phosphate buffered saline (PBS, pH 7.4), the nitrocellulose membrane was incubated for 1 h with primary antibodies: anti COX-1, anti COX-2 and anti 5-LOX were used in HCA-7, Caco-2 and LS174T at a dilution of 1:500; anti Caspase-3 and anti PARP-1 were used in HCA-7 at the dilution of 1:250. The membrane was then washed with PBS buffer to remove the excess unbound antibodies and incubated for 1 h with HRP-conjugated secondary antibody, at a dilution of 1:1000. Detection was performed by using the ECL procedure developed by Amersham. […]

[6] = Plasma ML3000 level after immediate release dosage form; format: in vivo; settings: for 8 hours
PARP = assay: Western blot of PARP cleavage in HCA-7 cells; format: cell-based, human; settings: licofelone 150 μM, almost complete at 24 hours
Experimental: as §2

CC1(C)Cc2c(-c3ccccc3)c(-c3ccc(Cl)cc3)c(CC(=O)O)n2C1 [licofelone, [2,2-dimethyl-6-(4-chlorophenyl)-7-phenyl-2,3-dihydro-1H-pyrrolizine-5 yl]-acetic acid]
appearance of membrane blebbing after administration of the drug (HCA-7 cells [1]): 10 to 12 h | morphological changes of nuclei after drug addition (HCA-7 cells [1]; Hoechst staining): 16-18 hours | inhibition of PGE2 production [2]: strongly inhibited PGE2 production | reversal of antiproliferative effect by exogenous PGE2 or LTB4 (HCA-7 cells [3]; 150 μM licofelone, 48 hours, exogenous PGE2 and LTB4 added): neither PGE2 or LTB4 administration was able to reverse the antiproliferative effect | IC50 (HCA-7 cells [3]; Homo sapiens, HCA-7, after 24 hours of treatment): 125 ± 6.25 µM | IC50 (HCA-7 cells [3]; Homo sapiens, HCA-7, after 48 hours of treatment): 72 ± 3.6 µM | inhibition at 150 µM (HCA-7 cells [3]; Homo sapiens, HCA-7, licofelone 150 μM, read-out: inhibition of HCA-7 growth): ~90% | reduction of LTB4 levels with respect to untreated cells [4]: 85% | accumulation of sub-G1 phase cells, maximum (HCA-7 cells [5]): 85% | cleavage of 34-kDa pro-enzyme caspase-3 to active 17-kDa form (caspase-3): strong and time-dependent cleavage | plasma ML3000 concentration maintained ([6]; dose 2.5 mg/kg): above 100 ng/mL | plasma ML3000 concentration maintained ([6]; dose 5 mg/kg): > 200 ng/mL | degradation of PARP (85-kDa band) (PARP): marked degradation of PARP
